{
  "source": "patent US20110053777A1",
  "about": "“Resistance to Acetolactate Synthase-Inhibiting Herbicides” (priority 2006, published 2011)",
  "key": {"[1]": {"tested_on": "C. tinctoria ALS allele with mutations at both Pro197 and Trp574", "experiment": "Herbicide resistance imparted by the double-mutant ALS allele", "parameters": "species or system Coreopsis tinctoria", "settings": "for Pre-emergence and/or post-emergence resistance to herbicide: novel allele with two point mutations; for Resistance of the clone with mutations at both Pro197 and Trp574: resistant clone with both mutations"}, "[2]": {"tested_on": "susceptible C. tinctoria plants", "experiment": "Greenhouse herbicide spray test, susceptible plants", "assay_type": "in vivo", "settings": "SM 8 oz. a.i./A, IM 2 oz. a.i./A", "procedure": "(§1) Response of resistant and susceptible C. tinctoria to imidazolinone and sulfonylurea herbicides treatments: Both wild-type and mutant strains of C. tinctoria were planted in the greenhouse with ˜100 seeds per pot. Individual plants were transplanted to separate pots after seven weeks. The greenhouse regime comprised natural light with temperatures of 25 to 30° C. during the day and 15 to 20° C. at night. The experimental setup was a completely randomized design with five treatments and six plants (replications) per treatment for both wild-type and mutant strains. The five treatments were Arsenal (imazapyr), Oust (sulfometuron methyl), Arsenal+Oust sequential, Oust+Arsenal sequential, and control (no herbicide). […] to individual mutant or susceptible, […], with 12 plants per each herbicide treatment for both wild-type and mutants. Ten days later, the same rate of Oust was sprayed on six plants that had previously been treated with Arsenal, and the same rate of Arsenal was sprayed on six plants that had previously been treated with Oust, for both wild-type and mutants. […]\nThe range of herbicide injury ratings for the sprayed susceptible plants was 3.3 to 4.8, with essentially no injury for the unsprayed controls."}, "[3]": {"tested_on": "ALS enzyme from the resistant C. tinctoria mutants", "experiment": "ALS enzyme assay, C. tinctoria mutant versus susceptible", "assay_type": "biochemical", "source_text": "(§2) ALS enzyme Assay: An ALS enzyme assay was used to determine if resistance in the mutants was due to the ALS enzyme itself in the mutant plants. A modification was used of the colorimetric method of Singh B. K., Stidham M. A., and Shaner D. L. 1988. Assay of acetohydroxyacid synthase. Analytical Biochemistry 171:173-179. Rice plants were used as controls. Sulfometuron methyl (Oust), chlorsulfuron (Glean), and imazapyr (Arsenal) were used as ALS inhibitors. Briefly, 10 grams of young leaves pooled from either mutant plants or from susceptible plants were ground to a powder in liquid nitrogen, and mixed with 50 ml of extraction buffer containing 100 mM K2HPO4 (pH 7.5), 10 mM sodium pyruvate, 5 mM EDTA, 1 mM valine, 1 mM leucine, 10 mM cysteine, 0.1 mM flavin adenine dinucleotide, 5 mM MgCl2, 10% (v/v) glycerol, and 1% (w/v) polyvinylpyrrolidone. The homogenate was filtered through eight layers of cheesecloth and centrifuged at 25,000 g at 4° C. for 20 min. The supernatant was brought to 50% saturation with (NH4)2SO4 by adding an equal volume of 100% saturated extraction buffer, and was then allowed to stand for 20-30 min on ice. The resulting solution was centrifuged at 25,000 g at 4° C. for another 20 min. The pellet was dissolved in 10 ml resuspension buffer containing 100 mM K2HPO4 (pH7.5), 1 mM EDTA, 100 mM NaCl, and 10% (v/v) glycerol. Bradford Reagent (SIGMA, Saint Louis, Mo., USA) was used to determine the concentration of total protein in solution; and resuspension buffer was used to adjust the concentrations of total protein from wild- and mutant-type of C. tinctoria to the same level.\n(§3) ALS activity was measured by mixing 1.5 ml of assay buffer, containing 100 mM K2HPO4 (pH 7.0), 10 mM MgCl2, 100 mM sodium pyruvate, 1 mM thiamine pyrophosphate, 0.1 mM flavin adenine dinucleotide, and 0.5 mL of the ALS extract, with varying amounts of herbicide (0.0.1, 1, 10, 100, 1000 μM). The mixture was then incubated at 37° C. for 1 h. […] The mixtures were then centrifuged at 12,000 g for 10 min, and absorbance was measured at 530 nm with a Spectrophotometer 690."}, "[4]": {"molecular_target": "T1, AHAS enzyme from CL161 rice (Oryza sativa subsp. japonica, UniProt Q6K2E8, S627N)", "T1 construct": "from tissue; host or cells: leaves of CL161 rice plants; crude ammonium sulfate fraction", "T1 sequence (Q6K2E8 44-644 S627N)": "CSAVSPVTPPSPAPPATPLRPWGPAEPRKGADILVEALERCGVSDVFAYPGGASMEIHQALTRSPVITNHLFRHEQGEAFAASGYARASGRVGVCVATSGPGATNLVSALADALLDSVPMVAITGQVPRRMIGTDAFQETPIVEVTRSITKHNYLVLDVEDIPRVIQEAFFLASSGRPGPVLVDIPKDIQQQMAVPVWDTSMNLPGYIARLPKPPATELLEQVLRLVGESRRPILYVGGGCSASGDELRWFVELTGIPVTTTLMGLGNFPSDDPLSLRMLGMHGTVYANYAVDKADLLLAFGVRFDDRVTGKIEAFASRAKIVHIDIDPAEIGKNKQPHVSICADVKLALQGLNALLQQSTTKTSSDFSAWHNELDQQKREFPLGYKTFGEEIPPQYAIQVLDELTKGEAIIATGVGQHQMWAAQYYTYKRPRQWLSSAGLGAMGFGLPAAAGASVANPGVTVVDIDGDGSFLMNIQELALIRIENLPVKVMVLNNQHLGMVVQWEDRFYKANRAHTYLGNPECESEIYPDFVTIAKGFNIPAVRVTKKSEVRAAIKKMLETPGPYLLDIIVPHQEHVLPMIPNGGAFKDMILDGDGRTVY", "experiment": "ALS enzyme assay, CL161 rice versus CCDR rice", "assay_type": "biochemical", "source_text": "as §2, §3"}, "[5]": {"tested_on": "resistant C. tinctoria plants", "experiment": "Greenhouse herbicide spray test, resistant plants", "assay_type": "in vivo", "procedure": "as §1\nPlant height in resistant plants was not affected when sprayed with […] or imazapyr, as compared to the unsprayed resistant controls. […] It appeared that the imazapyr+sulfosulfuron methyl treatment stimulated growth in the resistant plants, an observation that will be confirmed in follow-up experiments. Various strains or genotypes of C. tinctoria were used in this study, so a direct evaluation of herbicide on plant height should be viewed with caution. […] Herbicide injury ratings for the resistant plants ranged from 0.5 to 1.2 (Table 2)."}, "[6]": {"tested_on": "Idlewild-grown control seed (herbicide-sensitive Coreopsis)", "experiment": "Field planting sprayed with Oust, Idlewild-grown control seed", "assay_type": "in vivo, Coreopsis tinctoria", "settings": "single application of Oust at 0.07 pounds ai/A", "source_text": "(§4) Seed were harvested from mature Coreopsis with a combine from plantings both inside and outside the herbicide treated areas at the Idlewild Research Station in Clinton, La. Seed were also harvested with a combine from the roadside area near Chase, La. Putative herbicide-resistant seed from the Chase location, and putative herbicide-sensitive seed from the Idlewild Research Station were separately cleaned and stored in a climate-controlled seed storage facility.\n(§5) Seed samples from both seed sources were planted in March at the Idlewild Research Station using a small grain drill, at a 2 pound per acre seeding rate. Area one contained both control seed grown the previous season at the Idlewild Research Station, and seed obtained from the Chase, La. site. A second area was planted in March exclusively with seed from Chase, La. A third area was planted in April with seed from Chase, La.\n(§6) A single application of Oust at 0.07 pounds ai/A was applied in mid-May to half of the first and third plantings and to all of the second planting."}, "[7]": {"tested_on": "susceptible Coreopsis", "experiment": "Field trial of ALS-inhibiting herbicides on F1 plants, commercial control seed", "assay_type": "in vivo, Coreopsis tinctoria", "settings": "Oust applied at 0.07 pounds ai/A, ratings taken at 23 and 49 days after application", "procedure": "To confirm herbicide resistance, and to characterize herbicide resistance profiles, seeds from the roadside-harvested, putatively-resistant Coreopsis were harvested (F0) and planted in a field in a separate location from the original roadside stand. The resulting F0 plants were not subjected to herbicide treatment. F1 seeds were harvested from the F0 plants, and the F1 seeds were planted in a field in several blocks and replicates. The resulting F1 plants were treated with various AHAS-inhibiting herbicides.\nCommercial Coreopsis tinctoria seed were obtained as controls from two commercial nurseries. The commercially-obtained seed and the experimental seed were planted with a small grain drill at a seeding rate of 2 pounds per acre. Three months later, herbicides were applied to the F1 plants at different rates in a randomized complete block design with three replications. The ALS-inhibiting herbicides used in this trial were sulfometuron methyl (trade name Oust™); imazapic (trade name Plateau™); sulfosulfuron, 1-(2-ethylsulfonylimidazo[1,2a]pyridin-3-ylsulfonyl)-3-(4,6-dimethoxypyrimidin-2-yl) urea (trade name Outrider™); and DPX 6447.\nPercent injury ratings were taken at 23 and 49 days after herbicide application. All herbicide treatments injured the susceptible Coreopsis. […]"}, "[8]": {"tested_on": "susceptible transplants from Idlewild", "experiment": "Transplanting trial, susceptible transplants", "assay_type": "in vivo, Coreopsis tinctoria", "settings": "applied 2 weeks after transplant, ratings 2 and 4 weeks after application", "procedure": "A transplanting trial was also conducted in May at the Idlewild Research Station. Five-inch diameter divots of plants were collected at both the Chase and Idlewild sites. Divots were transplanted to a location at Idlewild which had had no previous Coreopsis crop. Divots were transplanted in a paired arrangement on 36 inch centers. Oust, Plateau and Outrider were applied at various rates 2 weeks after transplant. The trial used a randomized complete block design with 3 replications. Visual injury and height ratings were taken 2 and 4 weeks after application. Injury to the susceptible transplants from Idlewild ranged from a high of 100% at all rates of Oust to a low of 60% with the 0.06 pound ai/A rate of Outrider. No injury was observed, nor any height differences noted in any application made to the resistant transplants from the Chase site."}, "[9]": {"tested_on": "seed from Chase (herbicide-resistant Coreopsis)", "experiment": "Field planting sprayed with Oust, seed from Chase", "assay_type": "in vivo, Coreopsis tinctoria", "source_text": "as §4, §5, §6"}, "[10]": {"settings": "sequential sprays March 3 and March 13, 25 days after treatment"}, "[11]": {"settings": "SM 8 oz. a.i./A, IM 2 oz. a.i./A, sequential sprays March 3 and March 13"}},
  "data": [
    {"smiles": "Cc1cnc(C2=NC(C)(C(C)C)C(=O)N2)c(C(=O)O)c1", "note": "(racemic) [imazapic, (±)-2-[4,5-dihydro-4-methyl-4-(1-methyl-ethyl)-5-oxo-1H-imidazol-2-yl]-5-methyl-3-pyridinecarboxylic acid]", "values": [
      {"measurement": "Pre-emergence and/or post-emergence resistance to herbicide", "setting": "[1]", "result": "Resistance has been demonstrated"}
    ]},
    {"smiles": "CC(C)C1(C)N=C(c2ncccc2C(=O)O)NC1=O", "note": "(centres unmarked) [Arsenal, 2-[4,5-dihydro-4-methyl-4-(1-methylethyl)-5-oxo-1H-imidazol-2-yl]-3-pyridinecarboxylic acid]", "values": [
      {"measurement": "% height reduction compared to no spray control", "setting": "[2]; [10]", "result": 80, "unit": "%"},
      {"measurement": "Plant height (cm)", "setting": "[2]; [10]", "result": 11.0, "unit": "cm"},
      {"measurement": "Injury rating", "setting": "[2]; scale 0 = no injury, 10 = dead plant", "result": 3.5},
      {"measurement": "Tolerance of mutant ALS enzyme compared to susceptible variety", "setting": "[3]; Arsenal at 10 to 100 μM, FIG. 1a", "result": "~2.5", "unit": "fold"},
      {"measurement": "Tolerance of CL161 rice enzyme compared to control", "setting": "[4]; Arsenal at 10 μM, FIG. 1b", "result": "< 2", "unit": "fold"},
      {"measurement": "Pre-emergence and/or post-emergence resistance to herbicide", "setting": "[1]", "result": "Resistance has been demonstrated"},
      {"measurement": "Resistance of the clone with mutations at both Pro197 and Trp574", "setting": "[1]", "result": "strong resistance"},
      {"measurement": "Plant height compared to the unsprayed resistant controls (in words)", "setting": "[5]", "result": "not affected"},
      {"measurement": "% height reduction compared to no spray control", "setting": "[5]; [11]", "result": 0, "unit": "%"},
      {"measurement": "Plant height (cm)", "setting": "[5]; [11]", "result": 9.2, "unit": "cm"},
      {"measurement": "Injury rating", "setting": "[5]; scale 0 = no injury, 10 = dead plant, SM 8 oz. a.i./A, IM 2 oz. a.i./A", "result": 0.7}
    ]},
    {"smiles": "COC(=O)c1ccccc1S(=O)(=O)NC(=O)Nc1nc(C)nc(OC)n1", "note": "[metsulfuron methyl, methyl 2-[[[[(4-methoxy-6-methyl-1,3,5-triazin-2-yl)amino]carbonyl]amino]sulfonyl]benzoate]", "values": [
      {"measurement": "Pre-emergence and/or post-emergence resistance to herbicide", "setting": "[1]", "result": "Resistance has been demonstrated"}
    ]},
    {"smiles": "COc1cc(OC)nc(NC(=O)NS(=O)(=O)c2ncccc2C(F)(F)F)n1", "note": "[flazasulfuron]", "values": [
      {"measurement": "Pre-emergence and/or post-emergence resistance to herbicide", "setting": "[1]", "result": "Resistance has been demonstrated"}
    ]},
    {"smiles": "COc1nc(C)nc(NC(=O)NS(=O)(=O)c2ccccc2Cl)n1", "note": "[Glean, 2-chloro-N-[(4-methoxy-6-methyl-1,3,5-triazin-2-yl)aminocarbonyl]benzenesulfonamide]", "values": [
      {"measurement": "Tolerance of mutant AHAS compared to susceptible control", "setting": "[3]; Glean at 1 to 10 μM, FIG. 1c", "result": "~4.5", "unit": "fold"},
      {"measurement": "Tolerance of CL161 rice AHAS compared to control", "setting": "[4]; Glean at 1 μM, FIG. 1d", "result": "< 1", "unit": "fold"},
      {"measurement": "Resistance of the clone with mutations at both Pro197 and Trp574", "setting": "[1]", "result": "strong resistance"}
    ]},
    {"smiles": "COC(=O)c1ccccc1S(=O)(=O)NC(=O)Nc1nc(C)cc(C)n1", "note": "[Oust, 2-[[[[(4,6-dimethyl-2-pyrimidinyl)amino]carbonyl]amino]sulfonyl]benzoic acid methyl ester]", "values": [
      {"measurement": "injury rate", "setting": "[6]", "result": 98, "unit": "%"},
      {"measurement": "Tolerance of mutant ALS compared to susceptible control (in words)", "setting": "[3]; Oust, FIG. 1e", "result": "more tolerant than the susceptible control for Oust herbicide (sulfometuron methyl) (FIG. 1e), although the difference was not significant"},
      {"measurement": "Tolerance of CL161 rice compared to susceptible variety CCDR (in words)", "setting": "[4]; 100 μM of Oust, FIG. 1f", "result": "significantly greater tolerance"},
      {"measurement": "Percent injury rating", "setting": "[7]", "result": 98, "unit": "%"},
      {"measurement": "Visual injury", "setting": "[8]; all rates of Oust", "result": 100, "unit": "%"},
      {"measurement": "Pre-emergence and/or post-emergence resistance to herbicide", "setting": "[1]", "result": "Resistance has been demonstrated"},
      {"measurement": "Resistance of the clone with mutations at both Pro197 and Trp574", "setting": "[1]", "result": "strong resistance"},
      {"measurement": "effect of second application", "setting": "[9]; second application of Oust at 0.14 pounds ai/A", "result": "no noticeable effect"},
      {"measurement": "injury rate", "setting": "[9]; single application of Oust at 0.07 pounds ai/A", "result": "less than 1%"}
    ]},
    {"smiles": "CCS(=O)(=O)c1nc2ccccn2c1S(=O)(=O)NC(=O)Nc1nc(OC)cc(OC)n1", "note": "[Outrider, 1-(2-ethylsulfonylimidazo[1,2a]pyridin-3-ylsulfonyl)-3-(4,6-dimethoxypyrimidin-2-yl) urea]", "values": [
      {"measurement": "Visual injury", "setting": "[8]; 0.06 pound ai/A rate of Outrider", "result": 60, "unit": "%"},
      {"measurement": "Pre-emergence and/or post-emergence resistance to herbicide", "setting": "[1]", "result": "Resistance has been demonstrated"}
    ]},
    {"smiles": "COc1nc(C)nc(NC(=O)NS(=O)(=O)c2ccccc2OCCCl)n1", "note": "[triasulfuron, 3-(6-methoxy-4-methyl-1,3,5-triazin-2-yl)-1-[2-(2-chloroethoxy)-phenylsulfonyl]-urea]", "values": [
      {"measurement": "Pre-emergence and/or post-emergence resistance to herbicide", "setting": "[1]", "result": "Resistance has been demonstrated"}
    ]}
  ]
}
